From patent publication US7109193B2, “Tricyclic diazepines tocolytic oxytocin receptor antagonists” (Wyeth, priority 2001, dated 2006)

Target: T1, human vasopressin V2 receptor subtype (Homo sapiens, UniProt P30518)
T1 construct: host or cells: CHO cells (pZeoSV vector)
Assay: Vasopressin binding in Chinese Hamster Ovary cell membranes expressing human vasopressin V2 subtype receptors
Details: 100 nM, CHO cell membranes, [3H]arginine vasopressin, values without parentheses
How it was run: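 Radioligand displacement on membranes from CHO cells stably expressing human V2 receptor, 25 to 50 μg protein/well, in 50 mM Tris-HCl pH 7.4 with MgCl2, BSA and protease inhibitors. [^3H]arginine vasopressin (8 nM working solution) incubated 60 min at room temperature; bound label measured by filtration and scintillation counting.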

T1 sequence (P30518 whole entry): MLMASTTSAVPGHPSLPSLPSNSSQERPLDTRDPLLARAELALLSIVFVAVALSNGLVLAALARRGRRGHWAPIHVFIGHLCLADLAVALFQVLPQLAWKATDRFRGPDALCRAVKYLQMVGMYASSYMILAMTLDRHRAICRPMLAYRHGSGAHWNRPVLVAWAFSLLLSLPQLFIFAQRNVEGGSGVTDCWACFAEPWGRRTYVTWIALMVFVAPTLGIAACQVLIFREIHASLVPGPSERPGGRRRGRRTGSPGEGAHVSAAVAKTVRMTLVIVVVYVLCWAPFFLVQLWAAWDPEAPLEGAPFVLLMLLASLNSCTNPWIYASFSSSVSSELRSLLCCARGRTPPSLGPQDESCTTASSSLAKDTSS

Row | inhibition at 0.1 µM [%] | SMILES
1 | 14 | COc1cc(-c2ccccc2C)c(Cl)cc1C(=O)N1Cc2ccc(C(=O)N(C)C3CCN(C)CC3)n2Cc2ccccc21 [Example 180, 10-[(6-Chloro-3-methoxy-2′-methyl[1,1′-biphenyl]-4-yl)carbonyl]-N-methyl-N-(1-methyl-4-piperidinyl)-10,11-dihydro-5H-pyrrolo[2,1-c][1,4]benzodiazepine-3-carboxamide]
2 | 25 | COc1cccc(-c2ccc(C(=O)N3Cc4ccc(C(=O)N5CCN(C(C)C)CC5)n4Cc4ccccc43)cc2OC)c1 [Example 242, {10-[(2,3′-Dimethoxy[1,1′-biphenyl]-4-yl)carbonyl]-10,11-dihydro-5H-pyrrolo[2,1-c][1,4]benzodiazepin-3-yl}(4-isopropyl-1-piperazinyl)methanone]
3 | -4 | C=CCN1CCN(C(=O)c2ccc3n2Cc2ccccc2N(C(=O)c2ccc(-c4ccccc4C)c(OC)c2)C3)CC1 [Example 225, (4-Allyl-1-piperazinyl){10-[(2-methoxy-2′-methyl[1,1′-biphenyl]-4-yl)carbonyl]-10,11-dihydro-5H-pyrrolo[2,1-c][1,4]benzodiazepin-3-yl}methanone]
4 | 23 | COc1cccc(-c2ccc(C(=O)N3Cc4ccc(C(=O)N5CCN(CCN6CCOCC6)CC5)n4Cc4ccccc43)cc2OC)c1 [Example 211, {10-[(2,3′-Dimethoxy[1,1′-biphenyl]-4-yl)carbonyl]-10,11-dihydro-5H-pyrrolo[2,1-c][1,4]benzodiazepin-3-yl}{4-[2-(4-morpholinyl)ethyl]-1-piperazinyl}methanone]
5 | 4 | Cc1cc(C(=O)N2Cc3ccc(C(=O)NCCN4CCCCC4)n3Cc3ccccc32)ccc1-c1ccccc1C(F)(F)F [Example 161, 10-{[2-Methyl-2′-(trifluoromethyl)[1,1′-biphenyl]-4-yl]carbonyl}-N-[2-(1-piperidinyl)ethyl]-10,11-dihydro-5H-pyrrolo[2,1-c][1,4]benzodiazepine-3-carboxamide]
6 | 23 | COc1cc(C(=O)N2Cc3ccc(C(=O)N(C)C4CCN(C)CC4)n3Cc3ccccc32)ccc1-c1ccccc1C [Example 179, 10-[(2-Methoxy-2′-methyl[1,1′-biphenyl]-4-yl)carbonyl]-N-methyl-N-(1-methyl-4-piperidinyl)-10,11-dihydro-5H-pyrrolo[2,1-c][1,4]benzodiazepine-3-carboxamide]
7 | 20 | COc1ccccc1-c1ccc(C(=O)N2Cc3ccc(C(=O)NCCC4CCCN4C)n3Cc3ccccc32)cc1C (stereo not shown) [Example 162, 10-[(2′-Methoxy-2-methyl[1,1′-biphenyl]-4-yl)carbonyl]-N-[2-(1-methyl-2-pyrrolidinyl)ethyl]-10,11-dihydro-5H-pyrrolo[2,1-c][1,4]benzodiazepine-3-carboxamide]
8 | 17 | COc1cc(C(=O)N2Cc3ccc(C(=O)N4CCN(CCN5CCOCC5)CC4)n3Cc3ccccc32)ccc1-c1ccccc1C [Example 210, {10-[(2-Methoxy-2′-methyl[1,1′-biphenyl]-4-yl)carbonyl]-10,11-dihydro-5H-pyrrolo[2,1-c][1,4]benzodiazepin-3-yl}{4-[2-(4-morpholinyl)ethyl]-1-piperazinyl}methanone]
9 | 17 | CN1CCCC1CCNC(=O)c1ccc2n1Cc1ccccc1N(C(=O)c1ccc(-c3cccc4ccccc34)cc1Cl)C2 (stereo not shown) [Example 173, 10-[2-Chloro-4-(1-naphthyl)benzoyl]-N-[2-(1-methyl-2-pyrrolidinyl)ethyl]-10,11-dihydro-5H-pyrrolo[2,1-c][1,4]benzodiazepine-3-carboxamide]
10 | 13 | C=CCN1CCN(C(=O)c2ccc3n2Cc2ccccc2N(C(=O)c2ccc(-c4cccc(OC)c4)c(C)c2)C3)CC1 [Example 223, (4-Allyl-1-piperazinyl){10-[(3′-methoxy-2-methyl[1,1′-biphenyl]-4-yl)carbonyl]-10,11-dihydro-5H-pyrrolo[2,1-c][1,4]benzodiazepin-3-yl}methanone]
